Reference: ChEMBL document CHEMBL1201862, “PubChem BioAssay data set” (2004)
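Following 48 hours of exposure in 96-well plates, responses at five concentrations were used to interpolate endpoints linearly. The concentration for 50% growth inhibition is given as GI50.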 Activity calls are given as the source filed them. Rule as the data show it: active = GI50 up to about 1.1 µM and inactive = higher.

Tests used:
Assay in all cases: inhibition of tumour cell growth, NCI panel, 48 h
HOP-18 = tested on: HOP-18
ACHN = tested on: ACHN
UACC-62 = tested on: UACC-62
SF-295 = tested on: SF-295
Malme-3M = tested on: Malme-3M
HOP-62 = tested on: HOP-62
NCI-H226 = tested on: NCI-H226
HCC 2998 = tested on: HCC 2998
RPMI-8226 = tested on: RPMI-8226
OVCAR-3 = tested on: OVCAR-3
COLO 205 = tested on: COLO 205
SF-539 = tested on: SF-539
MOLT-4 = tested on: MOLT-4
NCI-H522 = tested on: NCI-H522
M19-MEL = tested on: M19-MEL
SK-MEL-5 = tested on: SK-MEL-5
HL-60 = tested on: HL-60
TK-10 = tested on: TK-10
SNB-78 = tested on: SNB-78
OVCAR-4 = tested on: OVCAR-4
KM12 = tested on: KM12
HCT-116 = tested on: HCT-116
SNB-75 = tested on: SNB-75
HT-29 = tested on: HT-29
RXF 393 = tested on: RXF 393
KM-20L2 = tested on: KM-20L2
UO-31 = tested on: UO-31
SNB-19 = tested on: SNB-19
K562 = tested on: K562
SK-MEL-2 = tested on: SK-MEL-2
OVCAR-5 = tested on: OVCAR-5
HCT-15 = tested on: HCT-15
DMS-114 = tested on: DMS-114
UACC-257 = tested on: UACC-257
CAKI-1 = tested on: CAKI-1
IGROV-1 = tested on: IGROV-1
SF-268 = tested on: SF-268
NCI-H23 = tested on: NCI-H23
SK-MEL-28 = tested on: SK-MEL-28
NCI-H460 = tested on: NCI-H460
U-251 = tested on: U-251
CCRF-CEM = tested on: CCRF-CEM
OVCAR-8 = tested on: OVCAR-8
SK-OV-3 = tested on: SK-OV-3
SN12C = tested on: SN12C
786-0 = tested on: 786-0
M14 = tested on: M14
LOX IMVI = tested on: LOX IMVI
DMS-273 = tested on: DMS-273
A549 = tested on: A549
LXFL 529 = tested on: LXFL 529
DLD-1 = tested on: DLD-1
SW-620 = tested on: SW-620
A498 = tested on: A498
HOP-92 = tested on: HOP-92
EKVX = tested on: EKVX

## COC(OC)c1cccc2c1C(=O)CCC1(CC2)OCCCCO1
HOP-18
  GI50: > 100 µM (inactive)
ACHN
  GI50: > 100 µM (inactive)
UACC-62
  GI50: > 100 µM (inactive)
SF-295
  GI50: > 100 µM (inactive)
Malme-3M
  GI50: > 100 µM (inactive)
HOP-62
  GI50: > 100 µM (inactive)
NCI-H226
  GI50: > 100 µM (inactive)
HCC 2998
  GI50: > 100 µM (inactive)
RPMI-8226
  GI50: > 100 µM (inactive)
OVCAR-3
  GI50: > 100 µM (inactive)
COLO 205
  GI50: > 100 µM (inactive)
SF-539
  GI50: > 100 µM (inactive)
MOLT-4
  GI50: > 100 µM (inactive)
NCI-H522
  GI50: > 100 µM (inactive)
M19-MEL
  GI50: > 100 µM (inactive)
SK-MEL-5
  GI50: > 100 µM (inactive)
HL-60
  GI50: > 100 µM (inactive)
TK-10
  GI50: > 100 µM (inactive)
SNB-78
  GI50: > 100 µM (inactive)
OVCAR-4
  GI50: > 100 µM (inactive)
KM12
  GI50: > 100 µM (inactive)
HCT-116
  GI50: > 100 µM (inactive)
SNB-75
  GI50: > 100 µM (inactive)
HT-29
  GI50: > 100 µM (inactive)
RXF 393
  GI50: > 100 µM (inactive)
KM-20L2
  GI50: > 100 µM (inactive)
UO-31
  GI50: > 100 µM (inactive)
SNB-19
  GI50: > 100 µM (inactive)
K562
  GI50: > 100 µM (inactive)
SK-MEL-2
  GI50: > 100 µM (inactive)
OVCAR-5
  GI50: > 100 µM (inactive)
HCT-15
  GI50: > 100 µM
DMS-114
  GI50: > 100 µM (inactive)
UACC-257
  GI50: > 100 µM (inactive)
CAKI-1
  GI50: > 100 µM (inactive)
IGROV-1
  GI50: > 100 µM (inactive)
SF-268
  GI50: > 100 µM (inactive)
NCI-H23
  GI50: > 100 µM (inactive)
SK-MEL-28
  GI50: > 100 µM (inactive)
NCI-H460
  GI50: > 100 µM (inactive)
U-251
  GI50: > 100 µM (inactive)
CCRF-CEM
  GI50: > 100 µM (inactive)
OVCAR-8
  GI50: > 100 µM (inactive)
SK-OV-3
  GI50: > 100 µM (inactive)
SN12C
  GI50: > 100 µM (inactive)
786-0
  GI50: > 100 µM (inactive)
M14
  GI50: > 100 µM (inactive)
LOX IMVI
  GI50: > 100 µM (inactive)
DMS-273
  GI50: > 100 µM (inactive)
A549
  GI50: > 100 µM (inactive)
LXFL 529
  GI50: > 100 µM (inactive)
DLD-1
  GI50: > 100 µM (inactive)
SW-620
  GI50: > 100 µM (inactive)
A498
  GI50: > 100 µM (inactive)

## CC(=O)/C(=N\O)C(=O)Nc1ccc(Cl)cc1Cl
HOP-18
  GI50: 43.1 µM (inactive)
ACHN
  GI50: > 100 µM (inactive)
UACC-62
  GI50: > 100 µM (inactive)
SF-295
  GI50: > 100 µM (inactive)
Malme-3M
  GI50: > 100 µM (inactive)
HOP-62
  GI50: > 100 µM (inactive)
NCI-H226
  GI50: > 100 µM (inactive)
HCC 2998
  GI50: > 100 µM (inactive)
RPMI-8226
  GI50: > 100 µM (inactive)
OVCAR-3
  GI50: > 100 µM (inactive)
COLO 205
  GI50: > 100 µM (inactive)
SF-539
  GI50: > 100 µM (inactive)
MOLT-4
  GI50: > 100 µM (inactive)
NCI-H522
  GI50: 97.9 µM (inactive)
M19-MEL
  GI50: > 100 µM (inactive)
SK-MEL-5
  GI50: > 100 µM (inactive)
HL-60
  GI50: > 100 µM (inactive)
TK-10
  GI50: > 100 µM (inactive)
SNB-78
  GI50: > 100 µM (inactive)
OVCAR-4
  GI50: > 100 µM (inactive)
KM12
  GI50: > 100 µM (inactive)
HOP-92
  GI50: > 100 µM (inactive)
HCT-116
  GI50: > 100 µM (inactive)
SNB-75
  GI50: > 100 µM (inactive)
HT-29
  GI50: > 100 µM (inactive)
RXF 393
  GI50: > 100 µM (inactive)
KM-20L2
  GI50: > 100 µM (inactive)
UO-31
  GI50: > 100 µM (inactive)
SNB-19
  GI50: > 100 µM (inactive)
K562
  GI50: > 100 µM (inactive)
SK-MEL-2
  GI50: > 100 µM (inactive)
OVCAR-5
  GI50: > 100 µM (inactive)
HCT-15
  GI50: > 100 µM
DMS-114
  GI50: > 100 µM (inactive)
UACC-257
  GI50: > 100 µM (inactive)
CAKI-1
  GI50: > 100 µM (inactive)
IGROV-1
  GI50: > 100 µM (inactive)
SF-268
  GI50: > 100 µM (inactive)
NCI-H23
  GI50: > 100 µM (inactive)
SK-MEL-28
  GI50: > 100 µM (inactive)
NCI-H460
  GI50: > 100 µM (inactive)
U-251
  GI50: > 100 µM (inactive)
CCRF-CEM
  GI50: 19.1 µM (inactive)
OVCAR-8
  GI50: > 100 µM (inactive)
SK-OV-3
  GI50: > 100 µM (inactive)
SN12C
  GI50: > 100 µM (inactive)
786-0
  GI50: > 100 µM (inactive)
M14
  GI50: > 100 µM (inactive)
LOX IMVI
  GI50: > 100 µM (inactive)
DMS-273
  GI50: > 100 µM (inactive)
A549
  GI50: > 100 µM (inactive)
LXFL 529
  GI50: > 100 µM (inactive)
DLD-1
  GI50: > 100 µM (inactive)
SW-620
  GI50: > 100 µM (inactive)
A498
  GI50: > 100 µM (inactive)
EKVX
  GI50: > 100 µM (inactive)
